We go through three compounds from patent publication US9958451B2, “Near-infrared fluorescent dyes with large stokes shifts” (Portland State University, priority 2011, dated 2018).

Several values for one entry are separate records, joined by “and”; a condition that tells them apart may be missing. Equal entries are not always repeated. Marks after values point to notes of the source that are not given here.

A short description of series [1]: Spectral properties of rhodamine bis-boronic acids and precursors in DMSO:buffer. It is filed as physicochemical. Also on record: Brightness: scale not given here. To be noted: for Quenching of emission (PET) of the free boronic acid: DMSO buffer 1:9. The procedure:
Characterization: The spectral properties of compounds 50-53 were determined. Absorption and fluorescence spectra of solutions of the rhodamine bis-boronic acids 51 and 53, and their respective precursors 50 and 52, are shown in FIGS. 27A-C (in DMSO:buffer 1:9) and 27D-F (DMSO:buffer 1:1). […] Excitation and emission spectra were normalized to their absorbance at the excitation wavelength, and are proportional to quantum yield.

The nature of series [2]: Saccharide sensing, response to ribose. The settings on record: DMSO:buffer 1:1, entire concentration range. The method, then: (§1) Solvents including MeCN, MeOH, EtOH, DMSO and buffer were initially screened for sugar sensing. […] DMSO mixtures were chosen for further studies.
(§2) The final pH 7.4 phosphate buffer concentration was 12.5 mM.

A short description of series [3]: Quantum yield in 10:90 DMSO:aqueous solutions. The settings on record: aqueous solution. It is filed as physicochemical. The procedure: The quantum yield of yellow-orange emitting 16a was 0.4649, 40 times greater than the corresponding neutral compound 15a. It was slightly higher than the yellow-green emitting neutral compound 20a, and >2 times higher than orange-red emitting anion 20c. The compounds (7.5 μM) were analyzed in 10:90 DMSO:aqueous solutions. Fluorescence emission was readily visible in a darkened room when the solutions were excited from below with 3-watt megaMAX 505 nm ALS system. The emission-enhancing properties afforded through the combination of the 3-1 transposition and methylation is in contrast to previously reported methyl ethers of seminaphthofluorescein compounds.

Series [4] can be described thus: UV-visible absorbance spectroscopy, 15 μM in 90% aqueous, 10% DMSO. The series is classed as physicochemical. The settings on record: 90% aqueous 10% DMSO. The procedure:
Compounds 21 and 7 were characterized by UV-visible spectroscopy (FIG. 15). Absorbance was measured using 15 μM solutions of each compound in a solution that was 90% aqueous, 10% DMSO. The peaks at 600 nm (light dashed line) and 675 nm (light solid line) represent the dianions of compounds 21 and 7, respectively, in NaOH (pH 12). The peaks at 590 nm (heavy dashed line) and 650 nm (heavy solid line) represent a mix of mono- and dianions of compound 21 at pH 7.4 and predominantly monoanions of compound 7 at pH 9, respectively.
Compounds 22 and 8 were characterized by UV-visible spectroscopy (FIG. 16). Absorbance was measured using 15 μM solutions of each compound in a solution that was 90% aqueous, 10% DMSO. The peaks at 610 nm (light dashed line) and 685 nm (light solid line) represent the anions of compounds 22 and 8, respectively, in NaOH (pH 12). The peaks at 605 nm (heavy dashed line) and 805 nm (heavy solid line) represent the neutral forms of compounds 22 and 8 at pH 7.4, respectively.
Compounds 20a and 15a were characterized by UV-visible spectroscopy (FIG. 17). Absorbance was measured using 15 μM solutions of each compound in a solution that was 90% aqueous, 10% DMSO. The peaks at 545 nm (light dashed line) and 595 nm (light solid line) represent the respective anions, compounds 20c and 15h, in NaOH (pH 12).
Compound 15b (free amino) was characterized by UV-visible spectroscopy (FIG. 18), and compared to C.SNARF-5 (literature, SNARF=seminaphthorhodafluor). Absorbance was measured using a 15 μM solution of compound 15b in a solution that was 90% aqueous, 10% DMSO. The peak at 535 nm (heavy line) represents the predominantly phenolic form of 15b at pH 6. The peak at 615 nm (light line) represents the phenoxide of compound 15b at in NaOH (pH12). In comparison, C.SNARF-5 produces a peak at 550 nm (anionic form) and a peak at 485 nm (neutral form) (Whitaker et al., Anal. Biochem. 1991, 194, 330-344).
Absorbance was measured using 15 μM solutions of compound 15d in a solution that was 90% aqueous, 10% DMSO. The peak at 570 nm (heavy line) represents the predominantly neutral form of 15d at pH 6. The peak at 630 nm (light line) represents the phenoxide of compound 15d in NaOH (pH 12).
Compounds 20b and 15g were characterized by UV-visible spectroscopy (FIG. 20). Absorbance was measured using 15 μM solutions of each compound in a solution that was 90% aqueous, 10% DMSO. The peaks at 540 nm (dashed line) and 570 nm (solid line) represent the cations of compounds 20b and 15g, respectively, at pH 7.4.

A short description of series [5]: Fluorescence emission spectra, 15 μM in 90% aqueous, 10% DMSO. It is filed as physicochemical. The method, then: Compounds 21 and 7 also were characterized by their fluorescence emission spectra. Fluorescence was measured using 15 μM solutions of each compound in a solution that was 90% aqueous, 10% DMSO. For compound 21, the longest wavelength emission observed from the dianions occurred near 680 nm at pH 9. For compound 7 (transposed), the longest wavelength emission observed from the monoanion occurred near 800 nm at pH 9.
Compounds 22 and 8 also were characterized by their fluorescence emission spectra. Fluorescence was measured using 15 μM solutions of each compound in a solution that was 90% aqueous, 10% DMSO For compound 22, the longest wavelength emission observed from the anion occurred near 690 nm at pH 9. […] Given the greater than 800 nm absorbance peak and the typically large Stokes shifts observed in this class of compounds, it is likely that the emission was beyond the working range of the instrument (>850 nm).
Compounds 20 and 15a also were characterized by their fluorescence emission spectra. Fluorescence was measured using 15 μM solutions of each compound in a solution that was 90% aqueous, 10% DMSO. For compound 20a, the longest wavelength emission observed from its corresponding anion, compound 20c, occurred near 640 nm in NaOH (pH 12). For compound 15a (transposed), the longest wavelength emission observed from the corresponding anion, compound 15h, occurred near 760 nm in NaOH.
Compound 15b also was characterized by its fluorescence emission spectrum and compared to C.SNARF-5. Fluorescence was measured using a 15 μM solution of compound 15b in a solution that was 90% aqueous, 10% DMSO. For C.SNARF-5, the longest wavelength emission observed from the anion occurred near 632 nm (Whitaker et al., Anal. Biochem. 1991, 194, 330-344). For compound 15b (transposed), the longest wavelength emission observed from the phenoxide occurred near 770 nm.
Fluorescence was measured using a 15 μM solution of compound 15d in a solution that was 90% aqueous, 10% DMSO. […] For compound 15d (transposed), the longest wavelength emission observed from the phenoxide occurred near 780 nm (NaOH, pH 12).
Compounds 20b and 15g also were characterized by their fluorescence emission spectra. Fluorescence was measured using 15 μM solutions of each compound in a solution that was 90% aqueous, 10% DMSO. For compound 20b, the longest wavelength emission observed from the cation occurred near 640 nm at pH 7.4. For compound 15g (transposed), the longest wavelength emission observed from the cation occurred near 770 nm at pH 7.4.

The nature of series [6]: Saccharide sensing, response to fructose. The procedure:
as §1, §2

Where [7] appears, read: DMSO:buffer 1:1, pH 7.4 phosphate buffer 12.5 mM.
Setting [8] is: DMSO:buffer 1:9, pH 7.4 phosphate buffer 12.5 mM.

Turning to `O=C(O)c1ccccc1-c1c2ccc(=NCc3ccccc3B(O)O)cc-2oc2c1ccc1cc(NCc3ccccc3B(O)O)ccc12` [Compound 51, seminaphthorhodamine bis-boronic acid], the “Quenching of emission (PET) of the free boronic acid” value in series [1] is “slightly quenched”. Also, in series [1] (DMSO:buffer 1:1), the Brightness was 8037, the Em worked out at 643 nm, the Ex was 580 nm and the Q.Y. was determined as 0.35. In series [1] (DMSO:buffer 1:1), this compound registered a ε of 23096 M⁻¹ cm⁻¹. Further, in series [1] (setting [7]), the Abs stood at 579 nm. In series [1] (DMSO:buffer 1:9), the Brightness is 3032^e, the Em is recorded as 638 nm, the Ex was determined as 568 nm and the Q.Y. is on record as 0.15. The compound also had a ε in series [1] (DMSO:buffer 1:9) of 20326 M⁻¹ cm⁻¹. Also, in series [1] (setting [8]), the Abs is recorded as 560 nm. In addition, in series [2], the Increase in absorbance entry is recorded as “approximately 1.5 fold” and the Increase in fluorescence entry is on record as “approximately 1.5 fold”.

As to `COC(=O)c1ccccc1-c1c2ccc(=O)cc-2oc2c1ccc1cccc(O)c12` [Compound 15h], the Quantum yield result in series [3] is “less than 1%”. In addition, in series [4] (depending on the ionization state), the “Red shift of absorption spectra from 3-1 transposition versus known regiochemistry” value is reported as 50 nm. The Absorbance peak in series [4] (NaOH (pH 12), anionic/phenoxide form) is 595 nm and 599 nm. In addition, the “Enhancement of the Stokes shift by 3-1 transposition” value in series [5] is on record as “about 70 nm”. The Longest wavelength emission in series [5] (NaOH (pH 12), anion/phenoxide) is 760 nm.

In the case of `O=C(O)c1ccccc1-c1c2ccc3cc(NCc4ccccc4B(O)O)ccc3c2oc2c1ccc1cc(=NCc3ccccc3B(O)O)ccc12` [Compound 53, naphthorhodamine bis-boronic acid], the “Quenching of emission (PET) of the free boronic acid” value in series [1] is given as “nearly completely quenched”. Moreover, in series [1] (DMSO:buffer 1:1), the Brightness is reported as 292^g, the Em was determined as 700 nm, the Ex worked out at 624 nm and the Q.Y. is given as 0.18. Moreover, in series [1] (DMSO:buffer 1:1), the ε turned out to be 1616 M⁻¹ cm⁻¹. The same compound had an Abs in series [1] (setting [7]) of 616 nm. In series [1] (DMSO:buffer 1:9), the Brightness is on record as 43^d,f, the Em was 692 nm, the Ex was determined as 612 nm and the Q.Y. turned out to be 0.004. The ε in series [1] (DMSO:buffer 1:9) came to 10759 M⁻¹ cm⁻¹. Besides, in series [1] (setting [8]), the Abs came to 628 nm. Further, the “Estimated quantum yield after binding” value in series [6] (DMSO:buffer 1:9) was 0.186. Further, in series [6] (DMSO:buffer 1:9, highest concentration of fructose), the “Increase in absorbance at 630 nm” value is “less than 3 fold”.
